Among the data in PubChem BioAssay AID1259408 (Genetic Toxicology Data Bank (GENE-TOX), 2018) are mutagenic call and call values, retold here.

In the series the test system is GENE-TOX genotoxicity assays, various organisms and cells. Nature of the series: GENE-TOX mutagenicity studies. Particulars: for call: Assay Type: In vivo carcinogenicity studies.
The mark [1] stands for this setting: Species/Cell Type: Escherichia coli polA (W3119 vs P3478), Assay Type: Rec-assay, DNA effects (bacterial DNA repair), Assay Code: RE1+, Evaluation Type: Evaluation A (Pre-1980).
Where [2] appears, read: Species/Cell Type: Mammalian polychromatic erythrocytes, Assay Type: Micronucleus test, chromosome aberrations, Assay Code: MNTT, Evaluation Type: Evaluation B (Post-1980).
The mark [3] stands for this setting: Species/Cell Type: Nonhuman, Assay Code: CCG+, Evaluation Type: Evaluation A (Pre-1980).
Setting [4] is: Species/Cell Type: Nonhuman, Assay Type: Sister-chromatid exchange (SCE) in vivo, Assay Code: SC3+, Evaluation Type: Evaluation B (Post-1980).
Where [5] appears, read: Species/Cell Type: Saccharomyces cerevisiae, Assay Type: Mitotic recombination or gene conversion, Assay Code: YEC+, Evaluation Type: Evaluation A (Pre-1980).
The mark [6] stands for this setting: Species/Cell Type: Salmonella typhimurium, Assay Type: Forward and reverse gene mutation, host-mediated assay, Assay Code: HMA+, Evaluation Type: Evaluation A (Pre-1980).
Setting [7] is: Species/Cell Type: Nonhuman, Assay Code: CCG+L, Evaluation Type: Evaluation A (Pre-1980).
The mark [8] stands for this setting: Species/Cell Type: Salmonella typhimurium (one or more of the five standard strains: TA98, TA100, TA1535, TA1537, and TA1538), Assay Type: Histidine reverse gene mutation, Ames assay, Assay Code: SAL-, Evaluation Type: Evaluation A (Pre-1980).
Where [9] appears, read: Species/Cell Type: Nonhuman, Assay Type: Sister-chromatid exchange (SCE) in vitro, Assay Code: SC2T, Evaluation Type: Evaluation B (Post-1980).

Each structure is given as a SMILES string. The source made the active and inactive calls. The rule behind the calls is not given here.

With `BrCCBr`, the mutagenic call is, setting by setting: (Species/Cell Type: Aspergillus nidulans, Assay Type: Forward gene mutation, Assay Code: ASF+, Evaluation Type: Evaluation A (Pre-1980)) “active; positive”; (Species/Cell Type: Chinese hamster ovary (CHO) cells, Assay Type: Forward gene mutation at the HPRT locus, Assay Code: CHO+, Evaluation Type: Evaluation B (Post-1980)) “active; positive”; (Species/Cell Type: Drosophila melanogaster, Assay Type: Sex-linked recessive lethal gene mutation, Assay Code: SRL+, Evaluation Type: Evaluation A (Pre-1980)) “active; positive”; under setting [1], “active; positive”; (Species/Cell Type: Fischer rat embryo (RLV/1706) cells, Assay Type: Cell transformation, viral enhanced, Assay Code: CTR+, Evaluation Type: Evaluation A (Pre-1980)) “active; positive”; (Species/Cell Type: Human lymphocytes, Assay Type: Sister-chromatid exchange (SCE) in vitro, Assay Code: SCL+, Evaluation Type: Evaluation B (Post-1980)) “active; positive”. Further, the mutagenic call runs as follows: (Species/Cell Type: Human, Assay Type: Sister-chromatid exchange (SCE) in vitro, Assay Code: SC1+, Evaluation Type: Evaluation B (Post-1980)) “active; positive”; (Species/Cell Type: Human, Sex: Male, Assay Type: Sperm morphology, Assay Code: SPH+, Evaluation Type: Evaluation A (Pre-1980)) “active; positive”; under setting [2], “no conclusion”; (Species/Cell Type: Mouse germ cells, Sex: Male, Assay Type: Unscheduled DNA synthesis (UDS) in vivo, DNA effects, Assay Code: UDT-, Evaluation Type: Evaluation A (Pre-1980)) “inactive; negative”; (Species/Cell Type: Mouse lymphoma (L5178Y) cells, Assay Type: Forward gene mutation at the thymidine kinase (TK) locus, chromosome aberrations, Assay Code: L51+, Evaluation Type: Evaluation A (Pre-1980)) “active; positive”; (Species/Cell Type: Neurospora crassa, Assay Type: Forward gene mutation, Assay Code: NEF+, Evaluation Type: Evaluation A (Pre-1980)) “active; positive”. Also, the mutagenic call was “active; positive” (Species/Cell Type: Nonhuman, Assay Type: Sister-chromatid exchange (SCE) in vitro, Assay Code: SC2+D, Dose Response: With dose response, Evaluation Type: Evaluation B (Post-1980)); “active; positive” under setting [4]; “active; positive” (Species/Cell Type: Plant, Assay Type: Micronucleus test, chromosome aberrations, Assay Code: MNP+, Evaluation Type: Evaluation A (Pre-1980)); “active; positive” under setting [5]; “no conclusion” (Species/Cell Type: Salmonella typhimurium, Assay Type: Forward and reverse gene mutation, body fluid assay, Assay Code: BFUT, Evaluation Type: Evaluation A (Pre-1980)); “active; positive” under setting [6]. In addition, the mutagenic call (Species/Cell Type: Syrian hamster embryo (SA7/SHE) cells, Assay Type: Cell transformation, viral enhanced, Assay Code: CT7+, Evaluation Type: Evaluation A (Pre-1980)) is “active; positive”; the mutagenic call (Species/Cell Type: Tradescantia species, Assay Type: Chromosome aberrations, Assay Code: TRC+D, Dose Response: With dose response, Evaluation Type: Evaluation A (Pre-1980)) is “active; positive”; the mutagenic call (Species/Cell Type: Tradescantia species, Assay Type: Gene mutation, Assay Code: TRM+D, Dose Response: With dose response, Evaluation Type: Evaluation A (Pre-1980)) was “active; positive”. Besides, the call under setting [3] was “active; positive”.

Turning to `COc1ccc(/C=N\NC(=O)COc2ccc(Br)cc2CN2CCCCC2)cc1`, the mutagenic call (Species/Cell Type: Saccharomyces cerevisiae, Assay Type: Reverse gene mutation, Assay Code: YERT, Evaluation Type: Evaluation A (Pre-1980)) is “no conclusion”.

On to `O=Cc1ccccc1`, for which the mutagenic call (Species/Cell Type: Neurospora crassa, Assay Type: Reverse gene mutation, Assay Code: NER+, Evaluation Type: Evaluation A (Pre-1980)) was “active; positive”.

In the case of `c1ccc2c(c1)ccc1c3ccccc3ccc21`, the mutagenic call (Species/Cell Type: Escherichia coli polA (W3110 vs P3478), Assay Type: Rec-assay, DNA effects (bacterial DNA repair), Assay Code: RE2-, Evaluation Type: Evaluation A (Pre-1980)) is “inactive; negative”; the mutagenic call (Species/Cell Type: Escherichia coli polA (W3119 vs P3478), Assay Type: Rec-assay, DNA effects (bacterial DNA repair), Assay Code: RE1T, Evaluation Type: Evaluation A (Pre-1980)) is reported as “no conclusion”; the mutagenic call (Species/Cell Type: Mammalian germ cells, Sex: Male, Assay Type: Chromosome aberrations in vivo, Assay Code: CY9-, Evaluation Type: Evaluation A (Pre-1980)) was “inactive; negative”; the mutagenic call (Species/Cell Type: Mouse prostate cells, Assay Type: Cell transformation, Assay Code: CTM-, Evaluation Type: Evaluation A (Pre-1980)) was “inactive; negative”; the mutagenic call under setting [4] is “active; positive”; the mutagenic call (Species/Cell Type: Nonhuman, Assay Type: Sister-chromatid exchange (SCE) in vivo, Assay Code: SC3T, Evaluation Type: Evaluation A (Pre-1980)) was “no conclusion”. In addition, the mutagenic call runs as follows: (Species/Cell Type: Saccharomyces cerevisiae, Assay Type: Mitotic recombination or gene conversion, Assay Code: YEH-, Evaluation Type: Evaluation A (Pre-1980)) “inactive; negative”; (Species/Cell Type: Salmonella typhimurium (one or more of the five standard strains: TA98, TA100, TA1535, TA1537, and TA1538), Assay Type: Histidine reverse gene mutation, Ames assay, Assay Code: SAL+*, Activation: With metabolic activation, Evaluation Type: Evaluation A (Pre-1980)) “active; positive”; (Species/Cell Type: Salmonella typhimurium, Assay Type: Forward and reverse gene mutation, host-mediated assay, Assay Code: HMA-, Evaluation Type: Evaluation A (Pre-1980)) “inactive; negative”; (Species/Cell Type: Syrian hamster embryo (SHE) cells, Assay Type: Cell transformation, clonal assay, Assay Code: CTC+, Evaluation Type: Evaluation A (Pre-1980)) “active; positive”. Besides, the call under setting [7] is “active; positive”.

With `Cc1cc(-c2ccc(N/N=C3/C(=O)c4c(N)cc(S(=O)(=O)O)cc4C=C3S(=O)(=O)O)c(C)c2)ccc1N/N=C1/C(=O)c2c(N)cc(S(=O)(=O)O)cc2C=C1S(=O)(=O)O`, the mutagenic call by setting is: (Species/Cell Type: Bacillus subtilis (H17 vs M45), Assay Type: Rec-assay, spot test, DNA effects (bacterial DNA repair), Assay Code: REW+, Evaluation Type: Evaluation A (Pre-1980)) “active; positive”; under setting [8], “inactive; negative”. For the same compound, the call under setting [3] was “active; positive”.

In the case of `CN1CCN(CC(=O)N/N=C/c2ccc([N+](=O)[O-])o2)CC1`, the mutagenic call is “inactive; negative” (Species/Cell Type: Escherichia coli WP2, Assay Type: Tryptophan reverse gene mutation, Assay Code: WP2-, Evaluation Type: Evaluation A (Pre-1980)); “active; positive” (Species/Cell Type: Mammalian polychromatic erythrocytes, Assay Type: Micronucleus test, chromosome aberrations, Assay Code: MNT+, Evaluation Type: Evaluation A (Pre-1980)); “inactive; negative” (Species/Cell Type: Rodents, Sex: Male, Assay Type: Dominant lethal test, Assay Code: DLT-, Evaluation Type: Evaluation A (Pre-1980)); “active; positive” under setting [5].

Take `CN(C)c1ccc(C(=N)c2ccc(N(C)C)cc2)cc1`: the mutagenic call runs as follows: under setting [1], “active; positive”; (Species/Cell Type: Mammalian polychromatic erythrocytes, Assay Type: Micronucleus test, chromosome aberrations, Assay Code: MNTT, Evaluation Type: Evaluation A (Pre-1980)) “no conclusion”; (Species/Cell Type: Nonhuman, Assay Type: Sister-chromatid exchange (SCE) in vitro, Assay Code: SC2+*, Activation: With metabolic activation, Evaluation Type: Evaluation B (Post-1980)) “active; positive”; under setting [4], “active; positive”; (Species/Cell Type: Saccharomyces cerevisiae, Assay Type: Mitotic recombination or gene conversion, Assay Code: YEH+, Evaluation Type: Evaluation A (Pre-1980)) “active; positive”; under setting [8], “inactive; negative”. Moreover, the mutagenic call (Species/Cell Type: Syrian hamster embryo (SHE) cells, Assay Type: Cell transformation, clonal assay, Assay Code: CTCT, Evaluation Type: Evaluation A (Pre-1980)) is recorded as “no conclusion”. Moreover, the call under setting [7] was “active; positive”.

Consider `C1CNCCN1`, for which the mutagenic call under setting [6] is “active; positive”.

As for `C[C@]12CC[C@@H]3c4ccc(O)cc4CC[C@H]3[C@@H]1CC[C@@H]2O`, the mutagenic call by setting is: (Species/Cell Type: Human lymphocytes, Assay Type: Sister-chromatid exchange (SCE) in vitro, Assay Code: SCL-*, Activation: With metabolic activation, Evaluation Type: Evaluation B (Post-1980)) “inactive; negative”; (Species/Cell Type: Human lymphocytes, Assay Type: Sister-chromatid exchange (SCE) in vitro, Assay Code: SCL-, Evaluation Type: Evaluation B (Post-1980)) “inactive; negative”; (Species/Cell Type: Human, Assay Type: Sister-chromatid exchange (SCE) in vitro, Assay Code: SC1-, Evaluation Type: Evaluation B (Post-1980)) “inactive; negative”; (Species/Cell Type: Mouse, Sex: Male, Assay Type: Sperm morphology, Assay Code: SPI+, Evaluation Type: Evaluation A (Pre-1980)) “active; positive”; under setting [9], “no conclusion”; (Species/Cell Type: Rat, Sex: Male, Assay Type: Sperm morphology, Assay Code: SPA+, Evaluation Type: Evaluation A (Pre-1980)) “active; positive”. Further, the call under setting [3] is “active; positive”.

For the compound `COc1cc(O)c2c(=O)c(O)c(-c3ccc(O)c(O)c3)oc2c1`, under setting [2], the mutagenic call is on record as “no conclusion”.

For the compound `O=c1[nH]cnc2nc[nH]c12`, the mutagenic call by setting is: (Species/Cell Type: Allium cepa, Assay Type: Chromosome aberrations, Assay Code: ALC-, Evaluation Type: Evaluation A (Pre-1980)) “inactive; negative”; (Species/Cell Type: Arabidopsis species, Assay Type: Gene mutation, Assay Code: ARM-, Evaluation Type: Evaluation A (Pre-1980)) “inactive; negative”; under setting [9], “no conclusion”.

On to `CC(=O)[O-].CC(=O)[O-].O.O.O.[Pb+2]`, for which the mutagenic call is “active; positive” (Species/Cell Type: Allium cepa, Assay Type: Chromosome aberrations, Assay Code: ALC+D, Dose Response: With dose response, Evaluation Type: Evaluation A (Pre-1980)) and “no conclusion” under setting [9].
